Reference: patent US20220289794A1, “SYNTHETIC ANTIMICROBIAL PEPTIDES” (priority 2019, published 2022)
Values after ≈ are worked out from the molar mass of the structure shown. Like-named read-outs stand apart in the source and are kept apart here. Non-standard residues stand in square brackets, D forms with d. Residues, ends and D or L forms follow the SMILES beside them. Dip = N[C@H](C(=O)O)C(c1ccccc1)c1ccccc1; 2Nal = N[C@@H](Cc1ccc2ccccc2c1)C(=O)O

Tests used:
B. subtilis (ATCC-6633) = assay: Broad-spectrum activity against Gram-Positive bacteria (MIC); assay type: cell-based; parameters: unit not given here
[1] = test system: Enterococcus faecium ATCC 27270; settings: E. faecium ATCC 27270
[2] = test system: P. aeruginosa (ATCC 10145); assay: Broad-spectrum activity against Gram-Negative bacteria (MIC); assay type: cell-based; settings: Table 16, Gram-negative panel
[3] = test system: Enterococcus faecium ATCC 700221; settings: E. faecium ATCC 700221
[4] = test system: Streptococcus pneumoniae ATCC 49619; settings: S. pneumoniae ATCC 49619
[5] = test system: Streptococcus pneumoniae ATCC 51938; settings: S. pneumoniae ATCC 51938
[6] = test system: A. baumannii (ATCC BAA-1605); assay: Broad-spectrum activity against Gram-Negative bacteria (MIC); assay type: cell-based; settings: Table 16, Gram-negative panel
human red blood cells = test system: human red blood cells; parameters: unit not given beside the values
[7] = test system: P. aeruginosa (ATCC BAA-1744); assay: Broad-spectrum activity against Gram-Negative bacteria (MIC); assay type: cell-based; settings: Table 16, Gram-negative panel
[8] = test system: Pseudomonas aeruginosa (ATCC 27883)
[9] = test system: Enterococcus faecalis ATCC 51575; settings: E. faecalis ATCC 51575
B. cereus (ATCC-13061) = assay: Broad-spectrum activity against Gram-Positive bacteria (MIC); assay type: cell-based; parameters: unit not given here
[10] = test system: Methicillin-resistant Staphylococcus aureus MRSA (ATCC BAA-1556)
[11] = test system: Enterococcus faecalis ATCC 29212; settings: E. faecalis ATCC 29212
[12] = test system: Klebsiella pneumoniae ATCC 13883; settings: Table 16, Gram-negative panel
[13] = test system: Escherichia coli (ATCC 25922)
E. coli (ATCC BAA-2452) = assay: Broad-spectrum activity against Gram-Negative bacteria (MIC); assay type: cell-based; settings: Table 16, Gram-negative panel
[14] = test system: Klebsiella pneumoniae (ATCC BAA-1705); settings: Table 16, Gram-negative panel

Row | Molecule | Broad-spectrum activity B. subtilis (ATCC-6633) (B. subtilis (ATCC-6633)) | Broad-spectrum activity E. faecium (ATCC 27270) [1] | MIC P. aeruginosa (ATCC 10145) [2] | Broad-spectrum activity E. faecium (ATCC 700221) [3] | MIC S. aureus ATCC 29213 (S. aureus ATCC 29213; ATCC 29213) | Broad-spectrum activity S. pneumoniae (ATCC 49619) [4] | Broad-spectrum activity S. pneumoniae (ATCC 51938) [5] | MIC A. baumannii (ATCC BAA-1605) [6] | HC50 (human red blood cells) | MIC P. aeruginosa (ATCC BAA-1744) [7] | MIC P. aeruginosa ATCC 27883 ([8]; ATCC 27883) | Broad-spectrum activity E. faecalis (ATCC 51575) [9] | Broad-spectrum activity B. cereus (ATCC-13061) (B. cereus (ATCC-13061)) | MIC MRSA ATCC BAA-1556 ([10]; ATCC BAA-1556) | Broad-spectrum activity E. faecalis (ATCC 29212) [11] | MIC K. pneumonia (ATCC 13883) [12] | MIC E. coli ATCC 25922 ([13]; ATCC 25922) | MIC E. coli (ATCC BAA-2452) (E. coli (ATCC BAA-2452)) | MIC K. pneumonia (ATCC BAA-1705) [14] | also measured
1 | N=C(N)NCCC[C@@H]1NC(=O)[C@H](CCCNC(=N)N)NC(=O)[C@H](C(c2ccccc2)c2ccccc2)NC(=O)[C@H](C(c2ccccc2)c2ccccc2)NC(=O)[C@H](CCCNC(=N)N)NC(=O)[C@H](CCCNC(=N)N)NC(=O)[C@H](C(c2ccccc2)c2ccccc2)NC1=O [IFX-016, c[Arg-Dip-Arg-Arg-Dip-Dip-Arg]] (cyclo(R[Dip]RR[Dip][Dip]R)) | 1.5 | 3.1 | 25 µg/mL (≈ 19.3 µM) | 1.5 | 6.2 µg/mL (≈ 4.79 µM) | 25 | 12.5 | 12.5 µg/mL (≈ 9.66 µM) | 310 | 12.5 µg/mL (≈ 9.66 µM) | 50 µg/mL (≈ 38.6 µM) | 12.5 | 6.2 | 6.2 µg/mL (≈ 4.79 µM) | 6.2 | 50 µg/mL (≈ 38.6 µM) | >100 µg/mL | 12.5 µg/mL (≈ 9.66 µM) | 25 µg/mL (≈ 19.3 µM) | –
2 | N=C(N)NCCC[C@@H]1NC(=O)[C@H](CCCNC(=N)N)NC(=O)[C@H](CCCNC(=N)N)NC(=O)[C@H](C(c2ccccc2)c2ccccc2)NC(=O)[C@H](C(c2ccccc2)c2ccccc2)NC(=O)[C@H](Cc2c[nH]c3ccccc23)NC1=O [IFX-020, c[Arg-Arg-Arg-Trp-Dip-Dip]] (cyclo([Dip][Dip]RRRW)) | 1.5 | 3.1 | 25 µg/mL (≈ 22.7 µM) | 1.5 | – | 25 | 12.5 | 25 µg/mL (≈ 22.7 µM) | 180 | 12.5 µg/mL (≈ 11.3 µM) | – | 12.5 | 3.1 | – | 6.2 | 50 µg/mL (≈ 45.4 µM) | – | 6.2 µg/mL (≈ 5.63 µM) | 12.5 µg/mL (≈ 11.3 µM) | –
3 | N=C(N)NCCC[C@@H]1NC(=O)[C@H](CCCNC(=N)N)NC(=O)[C@H](C(c2ccccc2)c2ccccc2)NC(=O)[C@H](Cc2c[nH]c3ccccc23)NC(=O)[C@H](C(c2ccccc2)c2ccccc2)NC(=O)[C@H](CCCNC(=N)N)NC1=O [IFX-021, c[Arg-Arg-Arg-Dip-Trp-Dip]] (cyclo([Dip]RRR[Dip]W)) | 3.1 | 6.2 | 50 µg/mL (≈ 45.4 µM) | 3.1 | – | 50 | 25 | 25 µg/mL (≈ 22.7 µM) | 260 | 25 µg/mL (≈ 22.7 µM) | – | 12.5 | 6.2 | – | 12.5 | > 50 µg/mL | – | 12.5 µg/mL (≈ 11.3 µM) | 12.5 µg/mL (≈ 11.3 µM) | –
4 | N=C(N)NCCC[C@@H]1NC(=O)[C@H](CCCNC(=N)N)NC(=O)[C@H](CCCNC(=N)N)NC(=O)[C@H](C(c2ccccc2)c2ccccc2)NC(=O)[C@H](C(c2ccccc2)c2ccccc2)NC(=O)[C@H](C(c2ccccc2)c2ccccc2)NC(=O)[C@H](CCCNC(=N)N)NC1=O [IFX-008, c[Arg-Arg-Arg-Arg-Dip-Dip-Dip]] (cyclo(RRRR[Dip][Dip][Dip])) | 1.5 | 3.1 | 25 µg/mL (≈ 19.3 µM) | 1.5 | 1.5 µg/mL (≈ 1.16 µM) | 25 | 12.5 | 12.5 µg/mL (≈ 9.66 µM) | 190 | 12.5 µg/mL (≈ 9.66 µM) | 12.5 µg/mL (≈ 9.66 µM) | 12.5 | 6.2 | 1.5 µg/mL (≈ 1.16 µM) | 6.2 | 50 µg/mL (≈ 38.6 µM) | 12.5 µg/mL (≈ 9.66 µM) | 6.2 µg/mL (≈ 4.79 µM) | 12.5 µg/mL (≈ 9.66 µM) | –
5 | N=C(N)NCCC[C@@H]1NC(=O)[C@H](CCCNC(=N)N)NC(=O)[C@H](Cc2ccc3ccccc3c2)NC(=O)[C@H](Cc2ccc3ccccc3c2)NC(=O)[C@H](CCCNC(=N)N)NC(=O)[C@H](CCCNC(=N)N)NC(=O)[C@H](Cc2ccc3ccccc3c2)NC1=O [IFX-018, c[Arg-NaI-Arg-Arg-NaI-NaI-Arg]] (cyclo(R[2Nal]RR[2Nal][2Nal]R)) | 1.5 | 1.5 | 50 µg/mL (≈ 41.1 µM) | 1.5 | 6.2 µg/mL (≈ 5.1 µM) | 25 | 12.5 | 6.2 µg/mL (≈ 5.1 µM) | 300 | 25 µg/mL (≈ 20.6 µM) | >100 µg/mL | 12.5 | 3.1 | 6.2 µg/mL (≈ 5.1 µM) | 6.2 | 50 µg/mL (≈ 41.1 µM) | 25 µg/mL (≈ 20.6 µM) | 12.5 µg/mL (≈ 10.3 µM) | 25 µg/mL (≈ 20.6 µM) | –
6 | c[arg-arg-arg-arg-dip-trp-dip] [IFX-101] | 1.5 | 3.1 | 50 µg/mL | 12.5 | – | 50 | 12.5 | 12.5 µg/mL | – | 25 µg/mL | – | 12.5 | 6.2 | – | 12.5 | > 50 µg/mL | – | 25 µg/mL | 25 µg/mL | MIC S. aureus ATCC 29213 (S. aureus ATCC 29213; S. aureus ATCC 29213): 3.1 µg/mL; MIC P. aeruginosa ATCC 27883 ([8]; P. aeruginosa ATCC 27883): 25 µg/mL; MIC MRSA ATCC BAA-1556 ([10]; MRSA ATCC BAA-1556): 3.1 µg/mL; MIC E. coli ATCC 25922 ([13]; E. coli ATCC 25922): 12.5 µg/mL
7 | c[Arg-Arg-Arg-Arg-Dip-dip-Dip] [IFX-061] | 1.5 | 3.1 | 25 µg/mL | 3.1 | – | 50 | 12.5 | 6.2 µg/mL | – | 12.5 µg/mL | – | 12.5 | 3.1 | – | 6.2 | 50 µg/mL | – | 12.5 µg/mL | 25 µg/mL | MIC S. aureus ATCC 29213 (S. aureus ATCC 29213; S. aureus ATCC 29213): 3.1 µg/mL; MIC P. aeruginosa ATCC 27883 ([8]; P. aeruginosa ATCC 27883): 12.5 µg/mL; MIC MRSA ATCC BAA-1556 ([10]; MRSA ATCC BAA-1556): 1.5 µg/mL; MIC E. coli ATCC 25922 ([13]; E. coli ATCC 25922): 12.5 µg/mL
